# Measured values taken from patent publication US20050191308A1 (priority 1999, published 2005).
# Tested on: M. tuberculosis (Erdman)
# Details: in vivo
smiles,measurement,value
CCCCCCCCCCCCCCCCCC[N+](C)(C)CCCCCCCCCCCCCCCCCC.[Br-] [DDA],"Log10 resistance, Lung, Experiment I",<0.05 log10
same,"Log10 resistance, Spleen, Experiment I",<0.05 log10
